Test results from patent US20190343782A1, “METHODS OF TREATING LIVER TOXICITY AND DISORDERS” (Yeda Research and Development Co. Ltd., priority 2016, published 2019).

Assay: APAP-induced hepatotoxicity: liver enzyme release and liver histology
Type: in vivo
Details: control mice; APAP 500 mg/kg intraperitoneally at ZT0 versus ZT12; analyzed 10 hours after injection
Method: Mice: C57B1/6 mice were purchased from Harlan and allowed to acclimatize to the animal facility environment for 2 weeks before used for experimentation. […] In all experiments, age- and gender-matched mice were used. Mice were 8-9 weeks of age at the beginning of experiments. All mice were kept at a strict 24-hour light-dark cycle, with lights being turn on from 6 am to 6 pm. […] Acetaminophen was administered intraperitoneally at a concentration of 500 mg/kg at either ZT0 or ZT12, and mice were analyzed 10 hours after injection. All antibiotics as well as acetaminophen were obtained from Sigma Aldrich.
Histology: Sections from the left lobe of the liver were fixed in paraformaldehyde and embedded in paraffin for staining with H&E. Subsequently, sections were examined by a blinded veterinary pathologist and scored for necrosis and hemorrhage on a scale from 0 (healthy) to 3 (most severe).
Statistical analysis: Data are expressed as mean ±SEM. […] Unless stated otherwise, elements with p<0.05 and q<0.1 were considered significant. For metabolites, q<0.2 was considered significant. For two-group comparisons, Mann-Whitney U-test was used and comparisons with p<0.05 were considered significant.

CC(=O)Nc1ccc(O)cc1 [APAP, acetaminophen]
APAP-induced hepatotoxicity (liver enzyme release, liver histology): dramatically exacerbated liver toxicity when APAP was injected at ZT12 as compared to ZTO
